How the values were obtained:
CAMKK1 (human) = CAMKK1 (human) (UniProt Q8N5S9); assay: KINOMEscan competition binding; settings: compound 10.0 µM
PRKCI (human) = PRKCI (human) (UniProt P41743); assay: KINOMEscan competition binding; settings: compound 10.0 µM
CAMK2D (human) = CAMK2D (human) (UniProt Q13557); assay: KINOMEscan competition binding; settings: compound 10.0 µM
KIT (human) = KIT (human) (UniProt P10721); assay: KINOMEscan competition binding; settings: compound 10.0 µM
RPS6KA4 KD1 (human) = RPS6KA4 KD1 (human) (UniProt O75676); assay: KINOMEscan competition binding; settings: compound 10.0 µM
LIMK1 (human) = LIMK1 (human) (UniProt P53667); assay: KINOMEscan competition binding; settings: compound 10.0 µM
PIP4K2B (human) = PIP4K2B (human) (UniProt P78356); assay: KINOMEscan competition binding; settings: compound 10.0 µM
PRKG1 (human) = PRKG1 (human) (UniProt Q13976); assay: KINOMEscan competition binding; settings: compound 10.0 µM
RPS6KA1 KD1 (human) = RPS6KA1 KD1 (human) (UniProt Q15418); assay: KINOMEscan competition binding; settings: compound 10.0 µM
[1] = test system: EGFR (human), P00533 [T790M]; assay: KINOMEscan competition binding; settings: compound 10.0 µM
AKT2 (human) = AKT2 (human) (UniProt P31751); assay: KINOMEscan competition binding; settings: compound 10.0 µM
[2] = test system: EGFR (human), P00533 [G719S]; assay: KINOMEscan competition binding; settings: compound 10.0 µM
ACVR1 (human) = ACVR1 (human) (UniProt Q04771); assay: KINOMEscan competition binding; settings: compound 10.0 µM
Sequence of ACVR1 (human) (Q04771 whole entry, looked up): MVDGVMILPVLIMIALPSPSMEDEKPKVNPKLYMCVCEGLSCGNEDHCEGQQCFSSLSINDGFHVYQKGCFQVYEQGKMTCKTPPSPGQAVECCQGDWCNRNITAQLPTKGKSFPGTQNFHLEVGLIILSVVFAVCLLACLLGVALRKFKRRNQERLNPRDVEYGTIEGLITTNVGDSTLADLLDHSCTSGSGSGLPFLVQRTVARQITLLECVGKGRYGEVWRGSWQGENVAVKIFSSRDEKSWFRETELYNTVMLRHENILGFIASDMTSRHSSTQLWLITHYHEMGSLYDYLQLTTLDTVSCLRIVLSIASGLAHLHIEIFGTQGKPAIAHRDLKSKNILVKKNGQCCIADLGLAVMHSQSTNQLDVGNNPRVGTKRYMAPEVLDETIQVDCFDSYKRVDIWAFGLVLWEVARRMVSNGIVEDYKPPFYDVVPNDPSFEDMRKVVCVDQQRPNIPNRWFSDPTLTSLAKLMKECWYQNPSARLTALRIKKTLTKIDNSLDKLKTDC

PIK3C2G (human) = PIK3C2G (human) (UniProt O75747); assay: KINOMEscan competition binding; settings: compound 10.0 µM
[3] = target: JAK3 JH1 catalytic (human) (UniProt P52333); assay: KINOMEscan competition binding; settings: compound 10.0 µM
[4] = test system: ABL1 (human), P00519 [M351T]; assay: KINOMEscan competition binding; settings: compound 10.0 µM
AKT3 (human) = AKT3 (human) (UniProt Q9Y243); assay: KINOMEscan competition binding; settings: compound 10.0 µM
CSNK1G1 (human) = CSNK1G1 (human) (UniProt Q9HCP0); assay: KINOMEscan competition binding; settings: compound 10.0 µM
NEK9 (human) = NEK9 (human) (UniProt Q8TD19); assay: KINOMEscan competition binding; settings: compound 10.0 µM
MAPK6 (human) = MAPK6 (human) (UniProt Q16659); assay: KINOMEscan competition binding; settings: compound 10.0 µM
MAP4K5 (human) = MAP4K5 (human) (UniProt Q9Y4K4); assay: KINOMEscan competition binding; settings: compound 10.0 µM
EIF2AK2 (human) = EIF2AK2 (human) (UniProt P19525); assay: KINOMEscan competition binding; settings: compound 10.0 µM
[5] = target: JAK2 JH1 catalytic (human) (UniProt O60674); assay: KINOMEscan competition binding; settings: compound 10.0 µM
Sequence of JAK2 JH1 catalytic (human) (O60674 whole entry, looked up): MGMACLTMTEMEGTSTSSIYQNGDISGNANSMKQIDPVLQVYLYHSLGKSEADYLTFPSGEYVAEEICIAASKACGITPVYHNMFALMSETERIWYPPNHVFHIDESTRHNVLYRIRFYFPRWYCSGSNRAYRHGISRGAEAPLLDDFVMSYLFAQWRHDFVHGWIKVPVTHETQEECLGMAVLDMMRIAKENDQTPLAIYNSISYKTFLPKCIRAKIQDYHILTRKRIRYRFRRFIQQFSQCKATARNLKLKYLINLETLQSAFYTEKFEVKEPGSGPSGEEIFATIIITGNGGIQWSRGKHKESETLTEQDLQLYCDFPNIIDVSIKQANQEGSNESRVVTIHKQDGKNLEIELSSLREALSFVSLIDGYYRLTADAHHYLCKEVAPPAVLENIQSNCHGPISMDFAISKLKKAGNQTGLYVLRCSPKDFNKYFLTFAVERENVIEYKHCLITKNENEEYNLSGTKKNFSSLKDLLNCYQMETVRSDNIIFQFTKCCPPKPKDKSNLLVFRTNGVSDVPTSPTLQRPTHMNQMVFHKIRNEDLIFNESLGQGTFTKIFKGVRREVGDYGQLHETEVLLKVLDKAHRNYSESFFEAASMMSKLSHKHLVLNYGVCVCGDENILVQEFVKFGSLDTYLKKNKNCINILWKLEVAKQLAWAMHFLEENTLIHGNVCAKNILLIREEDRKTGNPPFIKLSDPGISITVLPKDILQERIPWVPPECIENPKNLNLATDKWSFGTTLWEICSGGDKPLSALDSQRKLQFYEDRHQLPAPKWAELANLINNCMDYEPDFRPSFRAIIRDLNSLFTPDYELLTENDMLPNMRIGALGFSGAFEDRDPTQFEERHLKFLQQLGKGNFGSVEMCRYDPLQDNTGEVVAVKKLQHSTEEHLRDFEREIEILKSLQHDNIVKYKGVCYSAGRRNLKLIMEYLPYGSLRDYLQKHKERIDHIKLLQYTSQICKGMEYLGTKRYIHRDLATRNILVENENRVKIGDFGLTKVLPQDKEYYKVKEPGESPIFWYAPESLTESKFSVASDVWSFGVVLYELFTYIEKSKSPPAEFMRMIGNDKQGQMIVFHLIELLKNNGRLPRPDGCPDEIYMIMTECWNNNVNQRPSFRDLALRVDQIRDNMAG

PRKD2 (human) = PRKD2 (human) (UniProt Q9BZL6); assay: KINOMEscan competition binding; settings: compound 10.0 µM
NUAK2 (human) = NUAK2 (human) (UniProt Q9H093); assay: KINOMEscan competition binding; settings: compound 10.0 µM
IKBKB (human) = IKBKB (human) (UniProt O14920); assay: KINOMEscan competition binding; settings: compound 10.0 µM
PRKCZ (human) = PRKCZ (human) (UniProt Q05513); assay: radiometric filter-binding kinase assay
Sequence of PRKCZ (human) (Q05513 whole entry, looked up): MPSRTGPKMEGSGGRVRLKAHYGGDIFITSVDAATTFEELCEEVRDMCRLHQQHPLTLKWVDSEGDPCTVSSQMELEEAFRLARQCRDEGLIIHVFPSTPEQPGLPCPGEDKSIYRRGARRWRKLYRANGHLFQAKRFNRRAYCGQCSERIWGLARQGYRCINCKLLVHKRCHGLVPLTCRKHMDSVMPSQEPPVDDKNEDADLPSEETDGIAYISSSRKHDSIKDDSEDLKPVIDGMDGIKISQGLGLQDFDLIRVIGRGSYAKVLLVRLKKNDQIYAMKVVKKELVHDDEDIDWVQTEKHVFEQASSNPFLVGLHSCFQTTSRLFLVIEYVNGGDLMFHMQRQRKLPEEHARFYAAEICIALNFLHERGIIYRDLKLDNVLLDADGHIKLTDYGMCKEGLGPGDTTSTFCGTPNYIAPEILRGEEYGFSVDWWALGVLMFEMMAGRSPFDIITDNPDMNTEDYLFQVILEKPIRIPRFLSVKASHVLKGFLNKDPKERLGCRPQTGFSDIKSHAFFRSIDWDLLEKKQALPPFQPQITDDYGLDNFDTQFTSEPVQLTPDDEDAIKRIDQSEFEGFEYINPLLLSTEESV

IRAK4 (human) = IRAK4 (human) (UniProt Q9NWZ3); assay: radiometric filter-binding kinase assay
Sequence of IRAK4 (human) (Q9NWZ3 whole entry, looked up): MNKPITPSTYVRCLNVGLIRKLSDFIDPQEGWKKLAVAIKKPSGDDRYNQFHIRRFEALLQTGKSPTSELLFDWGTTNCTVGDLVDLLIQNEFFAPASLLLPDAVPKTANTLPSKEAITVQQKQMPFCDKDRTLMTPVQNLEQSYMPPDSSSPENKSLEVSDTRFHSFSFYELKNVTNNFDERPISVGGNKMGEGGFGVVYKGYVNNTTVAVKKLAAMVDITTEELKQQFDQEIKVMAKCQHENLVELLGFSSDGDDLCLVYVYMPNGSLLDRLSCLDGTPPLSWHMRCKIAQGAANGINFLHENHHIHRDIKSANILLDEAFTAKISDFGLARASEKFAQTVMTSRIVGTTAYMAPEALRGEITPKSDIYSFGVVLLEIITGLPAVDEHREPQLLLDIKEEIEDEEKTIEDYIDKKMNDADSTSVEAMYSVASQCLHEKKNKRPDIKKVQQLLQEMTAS

CaMK1 (human) = CaMK1 (human) (UniProt Q14012); assay: radiometric filter-binding kinase assay
Sequence of CaMK1 (human) (Q14012 whole entry, looked up): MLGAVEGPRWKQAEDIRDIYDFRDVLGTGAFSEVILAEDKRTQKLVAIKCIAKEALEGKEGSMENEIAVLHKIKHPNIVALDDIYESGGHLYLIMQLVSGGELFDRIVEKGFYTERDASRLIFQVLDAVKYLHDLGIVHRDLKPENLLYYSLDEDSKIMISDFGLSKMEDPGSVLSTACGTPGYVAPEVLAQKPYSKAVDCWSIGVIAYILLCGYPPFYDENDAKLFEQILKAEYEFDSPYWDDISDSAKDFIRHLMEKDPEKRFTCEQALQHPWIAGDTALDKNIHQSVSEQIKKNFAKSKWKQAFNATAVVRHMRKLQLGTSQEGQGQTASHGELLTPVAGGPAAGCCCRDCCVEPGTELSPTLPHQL

SYK (human) = SYK (human) (UniProt P43405); assay: radiometric filter-binding kinase assay
CDK2 CCNA2 (human) = CDK2 CCNA2 (human) (UniProt P20248+P24941); assay: radiometric filter-binding kinase assay
IGF1R (human) = IGF1R (human) (UniProt P08069); assay: radiometric filter-binding kinase assay
JAK2 JH1 JH2 (human) = JAK2 JH1 JH2 (human) (UniProt O60674); assay: radiometric filter-binding kinase assay
Sequence of JAK2 JH1 JH2 (human) (O60674 whole entry, looked up): as the sequence (O60674 whole entry, looked up) above

MKNK2 (human) = MKNK2 (human) (UniProt Q9HBH9); assay: radiometric filter-binding kinase assay
Sequence of MKNK2 (human) (Q9HBH9 whole entry, looked up): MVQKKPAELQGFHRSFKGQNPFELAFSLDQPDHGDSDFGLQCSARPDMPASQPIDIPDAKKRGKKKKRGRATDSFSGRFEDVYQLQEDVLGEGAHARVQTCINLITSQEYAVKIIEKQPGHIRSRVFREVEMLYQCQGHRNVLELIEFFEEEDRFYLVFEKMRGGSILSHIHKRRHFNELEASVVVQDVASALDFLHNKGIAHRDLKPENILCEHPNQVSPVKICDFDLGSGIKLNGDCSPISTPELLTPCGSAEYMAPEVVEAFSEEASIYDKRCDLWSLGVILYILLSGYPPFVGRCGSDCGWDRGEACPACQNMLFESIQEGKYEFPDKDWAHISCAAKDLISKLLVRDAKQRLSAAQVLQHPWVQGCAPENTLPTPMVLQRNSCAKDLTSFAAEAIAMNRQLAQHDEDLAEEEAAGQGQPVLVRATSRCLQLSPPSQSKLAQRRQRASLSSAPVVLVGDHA

HIPK1 (human) = HIPK1 (human) (UniProt Q86Z02); assay: radiometric filter-binding kinase assay
CLK2 (human) = CLK2 (human) (UniProt P49760); assay: radiometric filter-binding kinase assay
Sequence of CLK2 (human) (P49760 whole entry, looked up): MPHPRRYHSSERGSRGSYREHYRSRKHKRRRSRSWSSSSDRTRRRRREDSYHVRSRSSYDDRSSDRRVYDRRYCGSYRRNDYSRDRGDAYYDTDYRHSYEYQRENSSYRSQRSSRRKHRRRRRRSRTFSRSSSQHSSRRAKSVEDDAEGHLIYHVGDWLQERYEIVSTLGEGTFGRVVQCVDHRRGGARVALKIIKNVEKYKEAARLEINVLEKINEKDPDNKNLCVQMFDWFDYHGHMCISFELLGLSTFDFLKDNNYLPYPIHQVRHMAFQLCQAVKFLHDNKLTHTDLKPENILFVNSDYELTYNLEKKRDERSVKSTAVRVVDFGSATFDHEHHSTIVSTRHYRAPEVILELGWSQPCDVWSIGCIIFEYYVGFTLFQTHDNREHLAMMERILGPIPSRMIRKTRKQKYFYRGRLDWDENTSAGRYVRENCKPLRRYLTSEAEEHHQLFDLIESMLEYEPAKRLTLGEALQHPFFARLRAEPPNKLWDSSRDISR

CHEK2 (human) = CHEK2 (human) (UniProt O96017); assay: radiometric filter-binding kinase assay
Sequence of CHEK2 (human) (O96017 whole entry, looked up): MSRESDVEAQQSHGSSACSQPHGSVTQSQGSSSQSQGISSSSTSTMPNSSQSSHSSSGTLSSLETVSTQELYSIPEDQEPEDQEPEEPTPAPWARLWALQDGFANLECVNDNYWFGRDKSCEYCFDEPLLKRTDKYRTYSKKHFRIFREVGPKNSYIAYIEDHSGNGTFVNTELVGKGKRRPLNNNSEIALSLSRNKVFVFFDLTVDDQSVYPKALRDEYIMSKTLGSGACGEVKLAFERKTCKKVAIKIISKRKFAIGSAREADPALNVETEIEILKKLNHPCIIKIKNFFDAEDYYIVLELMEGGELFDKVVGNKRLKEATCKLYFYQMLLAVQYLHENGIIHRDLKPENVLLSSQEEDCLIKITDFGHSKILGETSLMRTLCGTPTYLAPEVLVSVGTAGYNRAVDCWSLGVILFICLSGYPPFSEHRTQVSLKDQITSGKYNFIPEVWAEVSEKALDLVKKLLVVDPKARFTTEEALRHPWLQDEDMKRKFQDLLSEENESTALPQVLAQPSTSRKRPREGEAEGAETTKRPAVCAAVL

PRKACA (human) = PRKACA (human) (UniProt P17612); assay: radiometric filter-binding kinase assay

## COc1cc(C(=O)N2CCC(N3CCN(C)CC3)CC2)ccc1Nc1ncc2c(n1)N(C)c1ccccc1C(=O)N2C
CAMKK1 (human)
  kinase still bound, per cent of control: 73%
PRKCI (human)
  kinase still bound, per cent of control: 100%
CAMK2D (human)
  kinase still bound, per cent of control: 28%
KIT (human)
  kinase still bound, per cent of control: 100%
RPS6KA4 KD1 (human)
  kinase still bound, per cent of control: 100%
LIMK1 (human)
  kinase still bound, per cent of control: 95%
PIP4K2B (human)
  kinase still bound, per cent of control: 100%
PRKG1 (human)
  kinase still bound, per cent of control: 98%
RPS6KA1 KD1 (human)
  kinase still bound, per cent of control: 73%
[1]
  kinase still bound, per cent of control: 88%
AKT2 (human)
  kinase still bound, per cent of control: 100%
[2]
  kinase still bound, per cent of control: 86%
ACVR1 (human)
  kinase still bound, per cent of control: 98%
PIK3C2G (human)
  kinase still bound, per cent of control: 100%
[3]
  kinase still bound, per cent of control: 100%
[4]
  kinase still bound, per cent of control: 94%
AKT3 (human)
  kinase still bound, per cent of control: 100%
CSNK1G1 (human)
  kinase still bound, per cent of control: 100%
NEK9 (human)
  kinase still bound, per cent of control: 100%
MAPK6 (human)
  kinase still bound, per cent of control: 100%
MAP4K5 (human)
  kinase still bound, per cent of control: 100%
EIF2AK2 (human)
  kinase still bound, per cent of control: 84%
[5]
  kinase still bound, per cent of control: 70%
PRKD2 (human)
  kinase still bound, per cent of control: 59%
NUAK2 (human)
  kinase still bound, per cent of control: 47%
IKBKB (human)
  kinase still bound, per cent of control: 89%
PRKCZ (human); compound 1.0 µM
  residual activity: 94%
PRKCZ (human); compound 10.0 µM
  residual activity: 104%
IRAK4 (human); compound 1.0 µM
  residual activity: 93%
IRAK4 (human); compound 10.0 µM
  residual activity: 94%
CaMK1 (human); compound 1.0 µM
  residual activity: 75%
CaMK1 (human); compound 10.0 µM
  residual activity: 43%
SYK (human); compound 1.0 µM
  residual activity: 71%
SYK (human); compound 10.0 µM
  residual activity: 63%
CDK2 CCNA2 (human); compound 1.0 µM
  residual activity: 84%
CDK2 CCNA2 (human); compound 10.0 µM
  residual activity: 79%
IGF1R (human); compound 1.0 µM
  residual activity: 107%
IGF1R (human); compound 10.0 µM
  residual activity: 90%
JAK2 JH1 JH2 (human); compound 1.0 µM
  residual activity: 74%
JAK2 JH1 JH2 (human); compound 10.0 µM
  residual activity: 80%
MKNK2 (human)
  IC50: 7.2 µM
MKNK2 (human); compound 1.0 µM
  residual activity: 72%
MKNK2 (human); compound 10.0 µM
  residual activity: 22%
HIPK1 (human); compound 1.0 µM
  residual activity: 94%
HIPK1 (human); compound 10.0 µM
  residual activity: 104%
CLK2 (human); compound 1.0 µM
  residual activity: 76%
CLK2 (human); compound 10.0 µM
  residual activity: 69%
CHEK2 (human)
  IC50: 2 µM
CHEK2 (human); compound 1.0 µM
  residual activity: 38%
CHEK2 (human); compound 10.0 µM
  residual activity: 13%
PRKACA (human); compound 1.0 µM
  residual activity: 79%
PRKACA (human); compound 10.0 µM
  residual activity: 93%

Source: the kinase profiling compilation of Christmann-Franck et al. (2016)
